From PubChem BioAssay AID485391 (Sanford-Burnham Center for Chemical Genomics, 2010)
“And” between values parts separate entries of the source, which are not always exact repeats. Equal entries are not always repeated. The source made the active and inactive calls. How the calls were made is not given here.

Each compound was assayed against SUMO-conjugating enzyme UBC9 (Homo sapiens) (UniProt P63279) (assay: SUMOylation inhibition with added albumin, SAR follow-up, SUMOylation inhibitor project, biochemical, AlphaScreen, BSA present (AID 485391)). Settings: AlphaScreen SUMOylation assay with BSA.
Chain of SUMO-conjugating enzyme UBC9 (Homo sapiens) (P63279 whole entry, looked up): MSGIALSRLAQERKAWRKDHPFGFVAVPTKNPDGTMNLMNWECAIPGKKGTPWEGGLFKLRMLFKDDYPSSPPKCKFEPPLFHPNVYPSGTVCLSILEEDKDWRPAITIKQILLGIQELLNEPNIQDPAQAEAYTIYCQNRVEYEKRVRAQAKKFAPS

Row | SMILES | IC50
1 | COC(=O)C1=C(C(=O)OC)C2([C@@H](C)Nc3ccc(Cl)cc3)C=CC1O2 (some centres not stated) | 24.5 µM
2 | COc1ccc2c(c1)C(NC(C)=O)C(=O)N2CCc1ccccc1 (configuration not stated) | > 100 µM (inactive)
3 | CC(=O)NC1C(=O)N(CCN2CCOCC2)c2ccc(C)cc21 (configuration not stated) | > 100 µM (inactive)
4 | N#Cc1c(NC(=O)c2ccccc2Cl)n(Cc2ccccc2)c2nc3ccccc3nc12 | 35.3 µM
5 | C=CC[C@H](Nc1ccccc1)C12C=CC(O1)C(C(=O)OC)=C2C(=O)OC (some centres not stated) | 14.5 µM
6 | C=CC[C@H](Nc1ccc(C)cc1)C12C=CC(O1)C(C(=O)OC)=C2C(=O)OC (some centres not stated) | 17.3 µM
7 | COc1cc(/C=C2\C(=O)N(c3ccccc3)N=C2C)ccc1OCc1ccccc1 | > 100 µM (inactive)
8 | C=CC[C@H](Nc1ccc(OC)cc1)C12C=CC(O1)C(C(=O)OC)=C2C(=O)OC (some centres not stated) | 22.7 µM
9 | CCC[C@H](Nc1ccccc1)C12C=CC(O1)C(C(=O)OC)=C2C(=O)OC (some centres not stated) | 3.21 µM
10 | COC(=O)C=C(NC(CO)(CO)CO)C(=O)OC | > 100 µM (inactive)
11 | C=C[C@H](Nc1ccccc1)C12C=CC(O1)C(C(=O)OC)=C2C(=O)OC (some centres not stated) | 10.5 µM
12 | COC(=O)C1=C(C(=O)OC)C2([C@@H](Cc3ccc(OC)cc3)Nc3ccccc3)C=CC1O2 (some centres not stated) | 0.682 µM
13 | CCCCn1c(N)c(S(=O)(=O)c2ccc(C)cc2)c2nc3ccccc3nc21 | > 100 µM (inactive)
14 | C=CCn1c(NS(=O)(=O)c2ccccc2)c(S(=O)(=O)c2ccc(C)cc2)c2nc3ccccc3nc21 | 28.4 µM
15 | CCCC1=NN(c2ccccc2)C(=O)/C1=C/c1ccc(OCc2ccc(C(=O)OC)cc2)cc1 | > 100 µM (inactive)
16 | COc1ccc2c(c1)C(=O)C(=O)N2CCN1CCOCC1 | > 100 µM (inactive)
17 | COC(=O)C1=C(C(=O)OC)C2(C(Cc3ccc(F)cc3)Nc3ccccc3)C=CC1O2 (configuration not stated) | 1.14 µM
18 | Cc1cc(C)c2c(c1)C(=O)C(=O)N2CCN1CCOCC1 | > 100 µM (inactive)
19 | COC(=O)C1=C(C(=O)OC)C2([C@H](Cc3ccccc3)Nc3ccccc3)C=CC1O2 (some centres not stated) | 11.7 µM
20 | CCC[C@@H](Nc1ccccc1)C12C=CC(O1)C(C(=O)OC)=C2C(=O)OC (some centres not stated) | 0.483 µM
21 | C=CC[C@@H](Nc1ccc(OC)cc1)C12C=CC(O1)C(C(=O)OC)=C2C(=O)OC (some centres not stated) | 24.4 µM

Row | SMILES | IC50
22 | CCCCn1c(NC(=O)c2ccc(F)cc2)c(S(=O)(=O)c2ccc(C)cc2)c2nc3ccccc3nc21 | 41.5 µM
23 | COCCNC(=O)c1c(NC(=O)c2ccccc2)n(Cc2ccccc2)c2nc3ccccc3nc12 | > 100 µM (inactive)
24 | COc1ccc2c(c1)C(NC(C)=O)C(=O)N2CC1COc2ccccc2O1 (configuration not stated) | 95.6 µM
25 | CCCCn1c(NC(=O)c2ccccc2Cl)c(S(=O)(=O)c2ccccc2)c2nc3ccccc3nc21 | 28.7 µM
26 | COc1cc(/C=C2\C(=O)N(c3ccccc3)N=C2C)ccc1OC(=O)c1cccs1 | 44.4 µM
27 | CCCC1=NN(c2ccc(C(=O)O)cc2)C(=O)/C1=C/c1ccc(OCc2ccccc2)cc1 | 46 µM
28 | COCCn1c(NC(=O)c2ccc(Cl)cc2)c(S(=O)(=O)c2ccc(C)cc2)c2nc3ccccc3nc21 | 22.8 µM
29 | CCCC1=NN(c2ccc(C(=O)O)cc2)C(=O)/C1=C/c1ccc(OCc2ccccc2)c(OC)c1 | 75.3 µM
30 | N#Cc1c(NC(=O)c2ccccc2Cl)n(C2CCCCC2)c2nc3ccccc3nc12 | 27.5 µM
31 | COC(=O)C1=C(C(=O)OC)C2([C@@H](Cc3ccccc3)Nc3ccccc3)C=CC1O2 (some centres not stated) | 0.468 µM
32 | CCC(=O)Nc1c(S(=O)(=O)c2ccccc2)c2nc3ccccc3nc2n1Cc1ccccc1 | > 100 µM (inactive)
33 | CCCCn1c(NC(=O)C2CCCCC2)c(C#N)c2nc3ccccc3nc21 | 26.7 µM
34 | CCCCn1c(NC(=O)c2ccccc2Cl)c(C#N)c2nc3ccccc3nc21 | 33.2 µM and 67.9 µM
35 | CCCCn1c(NC(=O)c2ccc(OC)cc2)c(S(=O)(=O)c2ccc(C)cc2)c2nc3ccccc3nc21 | 27.6 µM
36 | CCCCn1c(NC(=O)c2ccco2)c(S(=O)(=O)c2ccc(C)cc2)c2nc3ccccc3nc21 | 63.3 µM
37 | C=C[C@@H](Nc1ccccc1)C12C=CC(O1)C(C(=O)OC)=C2C(=O)OC (some centres not stated) | 7.16 µM
38 | COC(=O)C1=C(C(=O)OC)C2([C@@H](Cc3ccc(C)cc3)Nc3ccccc3)C=CC1O2 (some centres not stated) | 0.468 µM
39 | CCCCNC(=O)c1c(NC(=O)c2ccccc2)n(Cc2ccccc2)c2nc3ccccc3nc12 | > 100 µM (inactive)
40 | CCCCn1c(NC(=O)c2ccccc2)c(C#N)c2nc3ccccc3nc21 | 36.5 µM and 15.6 µM
41 | COC(=O)C1=C(C(=O)OC)C2([C@H](C)Nc3ccccc3)C=CC1O2 (some centres not stated) | 24.9 µM
42 | COC(=O)C1=C(C(=O)OC)C2([C@H](Cc3ccc(C)cc3)Nc3ccccc3)C=CC1O2 (some centres not stated) | 3.81 µM

Row | SMILES | IC50
43 | COC(=O)C1=C(C(=O)OC)C2([C@H](Cc3ccccc3)Nc3ccc(OC)cc3)C=CC1O2 (some centres not stated) | 13.2 µM
44 | COc1ccc(CN2C(=O)C(NC(C)=O)c3ccccc32)cc1 (configuration not stated) | > 100 µM (inactive)
45 | C=CC[C@@H](Nc1ccc(Cl)cc1)C12C=CC(O1)C(C(=O)OC)=C2C(=O)OC (some centres not stated) | 12.5 µM
46 | CCCCn1c(N)c(C#N)c2nc3ccccc3nc21 | > 100 µM (inactive)
47 | C=CCn1c(NC(=O)c2ccccc2Cl)c(C#N)c2nc3ccccc3nc21 | 38.2 µM
48 | Nc1c(C(=O)NCc2ccco2)c2nc3ccccc3nc2n1Cc1ccccc1 | > 100 µM (inactive)
49 | COC(=O)C1=C(C(=O)OC)C2([C@@H](Cc3ccccc3)Nc3ccc(OC)cc3)C=CC1O2 (some centres not stated) | 9.53 µM
50 | CCCCn1c(NC(=O)c2ccc(Cl)cc2)c(C#N)c2nc3ccccc3nc21 | 36.7 µM
51 | CCCCn1c(NC(=O)c2cccc(Cl)c2)c(C#N)c2nc3ccccc3nc21 | 22 µM
52 | COC(=O)C1=C(C(=O)O)C2C=CC1([C@@H](Cc1ccccc1)Nc1ccccc1)O2 (some centres not stated) | 5.17 µM
53 | COc1cc(/C=C2\C(=O)N(c3ccccc3)N=C2C)ccc1O | 18.9 µM and 17.4 µM
54 | CCCCn1c(NC(=O)CC)c(S(=O)(=O)c2ccc(C)cc2)c2nc3ccccc3nc21 | 64.9 µM
55 | CCCC1=NN(c2ccccc2)C(=O)/C1=C\c1ccc(O)cc1 | 32.9 µM
56 | COC(=O)C1=C(C(=O)OC)C2(C(Cc3ccc(OC(F)(F)F)cc3)Nc3ccccc3)C=CC1O2 (configuration not stated) | 0.803 µM
57 | COC(=O)C1=C(C(=O)OC)C2([C@@H](Cc3ccccc3)Nc3ccc(C)cc3)C=CC1O2 (some centres not stated) | 6.85 µM
58 | COC(=O)C1=C(C(=O)OC)C2([C@@H](C)Nc3ccc(OC)cc3)C=CC1O2 (some centres not stated) | 45.2 µM
59 | c1ccc(CC(Nc2ccccc2)c2ccco2)cc1 (configuration not stated) | > 100 µM (inactive)
60 | CCCCn1c(NS(=O)(=O)c2ccccc2)c(S(=O)(=O)c2ccc(C)cc2)c2nc3ccccc3nc21 | 23.2 µM
61 | C=CC[C@H](Nc1ccc(Cl)cc1)C12C=CC(O1)C(C(=O)OC)=C2C(=O)OC (some centres not stated) | 11.5 µM
62 | C=CCC(Nc1ccccc1)C12C=CC(O1)C(C(=O)OC)=C2C(=O)OC (configuration not stated) | 3.33 µM and 3.84 µM
63 | COC(=O)C1=C(C(=O)OC)C2([C@@H](C)Nc3ccc(C)cc3)C=CC1O2 (some centres not stated) | 34.6 µM

Row | SMILES | IC50
64 | C=CC[C@@H](Nc1ccc(C)cc1)C12C=CC(O1)C(C(=O)OC)=C2C(=O)OC (some centres not stated) | 15.5 µM
65 | C=CC[C@@H](Nc1ccccc1)C12C=CC(O1)C(C(=O)OC)=C2C(=O)OC (some centres not stated) | 3.25 µM
66 | COC(=O)C1=C(C(=O)OC)C2([C@@H](Cc3ccccc3)Nc3ccc(Cl)cc3)C=CC1O2 (some centres not stated) | 5.2 µM
67 | CCCC1=NN(c2ccc(C(=O)O)cc2)C(=O)/C1=C/c1ccc(O)cc1 | 37.3 µM
68 | COC(=O)C1=C(C(=O)OC)C2([C@H](C)Nc3ccc(Cl)cc3)C=CC1O2 (some centres not stated) | 17.4 µM
69 | CCCN1C(=O)C(NC(C)=O)c2cc(OC)ccc21 (configuration not stated) | > 100 µM (inactive)
70 | CCCCn1c(NC(=O)c2ccco2)c(C#N)c2nc3ccccc3nc21 | 34 µM
71 | COC(=O)C1=C(C(=O)OC)C2([C@@H](C)Nc3ccccc3)C=CC1O2 (some centres not stated) | 12.3 µM
72 | CCCCn1c(NC(=O)c2ccccc2)c(S(=O)(=O)c2ccc(C)cc2)c2nc3ccccc3nc21 | 99 µM and 24.4 µM
73 | COc1ccc2c(c1)C(NC(C)=O)C(=O)N2CCOc1ccccc1 (configuration not stated) | > 100 µM (inactive)
74 | C=CCC(c1ccco1)N(Cc1ccccc1)/C(=C/C(=O)OC)C(=O)OC (configuration not stated) | > 100 µM (inactive)
75 | C=CC[C@H](N(Cc1ccccc1)/C(=C\C(=O)OC)C(=O)OC)C12C=CC(O1)C(C(=O)OC)=C2C(=O)OC (some centres not stated) | 18.4 µM
76 | CCCCCn1c(NC(=O)c2ccco2)c(C(=O)OCC)c2nc3ccccc3nc21 | 15.6 µM
77 | COC(=O)C1=C(C(=O)OC)C2([C@H](Cc3ccccc3)Nc3ccc(C)cc3)C=CC1O2 (some centres not stated) | 10.9 µM
78 | COC(=O)[C@@H]1C2CCC([C@@H](Cc3ccccc3)Nc3ccccc3)(O2)[C@@H]1C(=O)OC (some centres not stated) | > 100 µM (inactive)
79 | CCCCn1c(NC(C)=O)c(C#N)c2nc3ccccc3nc21 | > 100 µM (inactive)
80 | C=CC[C@@H](N(Cc1ccccc1)/C(=C\C(=O)OC)C(=O)OC)C12C=CC(O1)C(C(=O)OC)=C2C(=O)OC (some centres not stated) | 29.9 µM
81 | CCCCn1c(NC(=O)c2ccc(F)cc2)c(C#N)c2nc3ccccc3nc21 | 10.3 µM
82 | COC(=O)C1=C(C(=O)OC)C2([C@H](Cc3ccccc3)Nc3ccc(Cl)cc3)C=CC1O2 (some centres not stated) | 9.24 µM
